Columns and labels:
[1] = test system: staphylococcus aureus (S. aureus); assay: Measurement of minimal inhibitory concentration (MIC), turbidity; assay type: cell-based; conditions: for minimal inhibitory concentration, S. aureus: Table 1, 35° C., 14-16 hours; for S. aureus MIC value: Table 2
From the text: (§1) 1. Measurement of Minimal Inhibitory Concentration (MIC)
(§2) Polyvinylpyrrolidone iodine (hereinafter, abbreviated as “PVPI”), phthalaldehyde (hereinafter, abbreviated as “PA”), potassium disulphite (hereinafter, abbreviated as “PD”) bronopol, norspermidine (hereinafter, abbreviated as “NS), and the ginseng extract were sequentially diluted, respectively, and prepared with various concentrations to prepare MIC measurement specimens. About 10^4-5 cfu/ml of escherichia coli (E. coli) and about 10^4˜5 cfu/ml of staphylococcus aureus (S. aureus) were added to the MIC measurement specimens, respectively. The specimens were cultured at 35° C. for 14-16 hours and then the turbidity was examined, respectively.
(§3) As a comparative example, specimens to which the E. coli and the S. aureus were added to distilled water, respectively, were cultured at the same time, and the minimal inhibitory concentration of the specimens was measured with reference to specimens subsequent to the culture and the turbidity of the comparative example subsequent to the culture.

[2] = test system: escherichia coli (E. coli); assay: as above; assay type: cell-based; conditions: for minimal inhibitory concentration, E. coli: Table 1, 35° C., 14-16 hours; for E. coli MIC value: Table 2; for MIC value of E. coli (wt %): in Table 3
From the text: as §1, §2, §3

S. aureus = assay: Paper disc experiment (clear zone); assay type: cell-based, Staphylococcus aureus; conditions: 24 hours, 35° C.
Description: (§4) 10^5 cfu/ml of E. coli and S. aureus were sub-cultured in a Mueller Hinton agar, respectively, and then smeared.
(§5) PVPI, ginseng extract, bronopol, PA, NS and PD were introduced to the paper disc, respectively, and left and dried for 5 to 10 minutes. The dried paper disc was put on a culture medium smeared with the E. coli and S. aureus with a sufficient interval, and cultured for 24 hours in a 35° C. incubator and then the size of clear zone was examined and the result is summarized in the following Table 2.

E. coli [3] = assay: Paper disc experiment (clear zone); assay type: cell-based, Escherichia coli; conditions: 24 hours, 35° C.
Description: as §4, §5

E. coli [4] = assay: Shaking flask method, materials in maintenance medium; assay type: cell-based, Escherichia coli; conditions: 35° C., concentration of each material (wt %)
Description: 3. Experiment Using Shaking Flask Method
A maintenance medium produced with 1% of nutrient broth and 0.5% of NaCl and inoculated with about 10^5 cfu/ml of E. coli was prepared. Materials of PVPI, ginseng extract, bronopol, PA and NS were introduced to the medium, respectively, and reacted at 35° C., and the antibiotic effect was examined using a pour plate method after 6 hours and 24 hours had been passed.
The antibiotic effect in the Table 3 was calculated using the following equation.
Me: Cell number of maintenance medium to which each material is added
Mc: Cell number of maintenance medium to which each material is not added

Molecule	minimal inhibitory concentration, S. aureus [1]	S. aureus MIC value [1]	minimal inhibitory concentration, E. coli [2]	E. coli MIC value [2]	S. aureus clear zone (mm) (S. aureus)	E. coli clear zone (mm) (E. coli [3])	Antibiotic effect after 6 hours (E. coli [4])	Antibiotic effect after 24 hours (E. coli [4])	MIC value of E. coli (wt %) [2]
O=S([O-])OS(=O)[O-].[K+].[K+] [PD, potassium disulphite]	0.078% weight %	0.078% weight %	0.156% weight %	0.156% weight %	32 mm	12 mm			
Polyvinylpyrrolidone iodine [PVPI, reference compound]	1.875% weight %	1.875% weight %	1.875% weight %	1.875% weight %	30 mm	12 mm	99.99%	100%	1.875% wt %
NCCCNCCCN [NS, norspermidine]	0.078% weight %	0.078% weight %	0.312% weight %	0.312% weight %	23 mm	14 mm	99.99%	100%	0.312% wt %
O=[N+]([O-])C(Br)(CO)CO [Bronopol, bronopol, reference compound]	Less than 0.0009% weight %	0.156% weight %	Less than 0.0009% weight %	0.156% weight %	10 mm	10 mm	99.99%	100%	0.156% wt %
O=Cc1ccccc1C=O [PA, phthalaldehyde]	0.156% weight %	< 0.0009% weight %	0.156% weight %	< 0.0009% weight %	11 mm	10 mm	99.99%	100%	< 0.0009% wt %

From patent US9327225B2, “Air cleaning filter and method for manufacturing the same” (LG Electronics Inc., priority 2012, dated 2016)
